According to BindingDB's records for doi:10.1016/j.bmcl.2018.12.057 (Indian Institute of Technology Madras, 2019):

Molecular target: Luciferin 4-monooxygenase (Photinus pyralis, UniProt P08659)
Assay: Activation of firefly luciferase activity expressed in HEK293T cells after 6 hrs by luminescence assay

Luciferin 4-monooxygenase, sequence (P08659 whole entry): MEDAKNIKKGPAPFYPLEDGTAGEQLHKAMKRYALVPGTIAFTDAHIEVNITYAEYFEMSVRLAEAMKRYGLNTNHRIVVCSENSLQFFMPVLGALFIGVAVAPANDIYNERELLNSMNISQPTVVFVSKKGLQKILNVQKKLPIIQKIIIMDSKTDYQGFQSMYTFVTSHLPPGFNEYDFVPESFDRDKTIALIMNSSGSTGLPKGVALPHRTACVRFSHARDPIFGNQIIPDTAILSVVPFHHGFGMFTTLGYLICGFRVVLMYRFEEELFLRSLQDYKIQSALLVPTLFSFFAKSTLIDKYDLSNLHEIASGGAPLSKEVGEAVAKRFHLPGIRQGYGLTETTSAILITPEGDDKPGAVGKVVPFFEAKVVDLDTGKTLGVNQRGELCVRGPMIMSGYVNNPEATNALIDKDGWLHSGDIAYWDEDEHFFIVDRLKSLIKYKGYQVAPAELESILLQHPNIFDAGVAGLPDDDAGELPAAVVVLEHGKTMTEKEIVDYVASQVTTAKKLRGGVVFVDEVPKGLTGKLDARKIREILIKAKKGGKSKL

Work on `CCCCCCCCCCCCCC(=O)O[C@@H]1[C@@H](C)[C@@]2(O)[C@@H](C=C(CO)C[C@]3(O)C(=O)C(C)=C[C@@H]23)[C@@H]2C(C)(C)[C@]12OC(C)=O` [phorbol 13-acetate 12-myristate] yielded an EC50 of 10 nM.
